# The source made the active and inactive calls. Rule as the data show it: active = AC50 below about 11 µM.
# Assay: TNFa pathway inhibition counter-screen, B-lineage cells – dose response (AID 1259334);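 also: cells stimulated with TNFa after compound preincubation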
# Details: B cell line, TNFa signaling counterscreen reporter; at 0.0005 µM; stronger effect = lower value
row,SMILES,max activity
1,CCN(CC(=O)Nc1ccc(NC(C)=O)cc1)C(=O)C1CCCN(C(=O)c2ccc(Cl)cc2)C1 (stereo not drawn),-4.62% (inactive)

# Same assay, conditions: B cell line, TNFa signaling counterscreen reporter; at 0.0015 µM; stronger effect = lower value
row,SMILES,max activity
1,Cc1ccc(-c2nn3c(C)nnc3c3ccccc23)cc1S(=O)(=O)NCc1ccccc1,9.48% (inactive)

# Same assay, conditions: B cell line, TNFa signaling counterscreen reporter; at 0.0046 µM; stronger effect = lower value
row,SMILES,max activity
1,C[C@H]1CCCCO[C@H](CN(C)Cc2ccc(C(F)(F)F)cc2)[C@@H](C)CN([C@@H](C)CO)C(=O)c2cc(NC(=O)Nc3cccc4ccccc34)ccc2O1,7.77% (inactive)
2,COc1cccc(S(=O)(=O)N(C)C[C@H]2OCc3ccccc3-c3c(n(C)c4ccccc34)C(=O)N([C@@H](C)CO)C[C@H]2C)c1,10.1% (inactive)
3,NS(=O)(=O)c1cc2c(cc1C(F)(F)F)NC(Cc1ccccc1)NS2(=O)=O (stereo not drawn),6.69% (inactive)
4,CCN1C(=O)C(CC(=O)Nc2ccc(OC)cc2)N(CCc2ccc(F)cc2)C1=S (stereo not drawn),4.9% (inactive)

# Same assay, conditions: B cell line, TNFa signaling counterscreen reporter; at 0.0135 µM; stronger effect = lower value
row,SMILES,max activity
1,COc1cccc(S(=O)(=O)N(C)C[C@@H]2OCc3ccccc3-c3c(n(C)c4ccccc34)C(=O)N([C@H](C)CO)C[C@H]2C)c1,14.6% (inactive)
2,O=C1C=CC(=O)C2=C1C1c3ccccc3C2c2ccccc21,13% (inactive)
3,C[C@@H]1CN([C@@H](C)CO)C(=O)Cc2cc(NS(=O)(=O)c3ccccc3)ccc2O[C@H]1CN(C)Cc1ccc(Cl)c(Cl)c1,16% (inactive)
4,COc1cccc(OC)c1OCCNCC1COc2ccccc2O1 (stereo not drawn),14.5% (inactive)
5,COc1ccc(S(=O)(=O)N(C)C[C@@H]2Oc3ccc(NC(=O)Nc4ccc(C(F)(F)F)cc4)cc3C(=O)N([C@@H](C)CO)C[C@@H]2C)cc1,7.2% (inactive)
6,CCc1cc2c(COC(=O)c3cc(S(=O)(=O)N4CCOCC4)ccc3F)cc(=O)oc2cc1O,15.8% (inactive)

# Same assay, conditions: B cell line, TNFa signaling counterscreen reporter; at 0.042 µM; stronger effect = lower value
row,SMILES,max activity
1,CC(=O)Nc1ccc(S(=O)(=O)c2ccc(N)cc2)cc1,6.36% (inactive)
2,CC1=NNC(=O)C1Br (stereo not drawn),52.7% (inactive)
3,COc1ccc(CN2CC3(CN(S(=O)(=O)c4ccc(C)cc4)C3)c3c([nH]c4cc(OC)ccc34)[C@H]2CO)cc1,14.8% (inactive)
4,N#C[C@@H]1[C@@H](c2ccc(C#CC3CCCCC3)cc2)[C@H](CO)N1C(=O)Nc1ccc(F)cc1,13.4% (inactive)

# Same assay, conditions: B cell line, TNFa signaling counterscreen reporter; at 0.11 µM; stronger effect = lower value
row,SMILES,max activity
1,C[C@@H]1CN([C@H](C)CO)C(=O)c2c(c3ccccc3n2C)-c2ccccc2CO[C@@H]1CN(C)S(=O)(=O)c1ccccc1C#N,17.1% (inactive)

# Same assay, conditions: B cell line, TNFa signaling counterscreen reporter; at 0.12 µM; stronger effect = lower value
row,SMILES,max activity
1,CC12CN3CC(C)(CN(C1)C3c1ccc3c(c1)OCO3)C2=O (stereo not drawn),-17.3% (inactive)
2,Cc1cc(C)c2c(c1)SC1=NC(c3ccccc3)(C(F)(F)F)NC(=O)N12 (stereo not drawn),-5.9% (inactive)
3,COc1cccc(NC(=O)N2CC(=O)N3[C@H](CO)[C@@H](c4ccc(C#CCC5CCCC5)cc4)[C@H]3C2)c1,16.8% (inactive)
4,Cc1ccc(C2(C)NC(=O)N(CC(=O)Nc3cccnc3Cl)C2=O)cc1 (stereo not drawn),-17.9% (inactive)
5,C[C@@H]1CCCCO[C@@H](CN(C)CC2CCCCC2)[C@@H](C)CN([C@@H](C)CO)C(=O)c2cc(NC(=O)Nc3ccc(C(F)(F)F)cc3)ccc2O1,11.4% (inactive)

# Same assay, conditions: B cell line, TNFa signaling counterscreen reporter; at 0.38 µM; stronger effect = lower value
row,SMILES,max activity
1,N#Cc1cccc(-c2ccc([C@@H]3[C@H](CO)N4CCCCN(C(=O)Nc5cccc(F)c5)C[C@@H]34)cc2)c1,-15% (inactive)
2,c1ccc(CCSc2nccn2-c2ccccc2)cc1,38% (inactive)
3,CC(C)(C)c1cc(/C=C(\C#N)C(N)=S)cc(C(C)(C)C)c1O,-4.66% (inactive)
4,Oc1cc(O)cc(/C=C/c2ccc(O)c(O)c2)c1,7.46% (inactive)
5,C[C@H]1CN([C@@H](C)CO)C(=O)c2ccccc2-c2ccccc2CO[C@H]1CN(C)C(=O)[C@@H](Cc1ccccc1)N(C)C,-6.07% (inactive)
6,C[C@@H]1CN([C@@H](C)CO)C(=O)c2c(c3ccccc3n2C)-c2ccccc2CO[C@@H]1CN(C)Cc1cccc(C(F)(F)F)c1,-7.66% (inactive)
7,CC(C)NC(=O)N1CC(=O)N2[C@H](CO)[C@@H](c3ccc(/C=C/c4ccccc4)cc3)[C@H]2C1,-8.8% (inactive)
8,Oc1ccc(Cc2ccccc2)c2cccnc12,-12% (inactive)
9,CC(=O)c1cc(-c2ccccc2)n(CC(=O)NCc2cccs2)c1C,12.3% (inactive)

# Same assay, conditions: B cell line, TNFa signaling counterscreen reporter; at 1.1 µM; stronger effect = lower value
row,SMILES,max activity
1,COc1cccc(S(=O)(=O)N(C)C[C@@H]2OCc3ccccc3-c3c(n(C)c4ccccc34)C(=O)N([C@H](C)CO)C[C@@H]2C)c1,16.8% (inactive)
2,Cc1noc(C)c1NC(=O)N(C)C[C@@H]1OCCCC[C@@H](C)Oc2ccc(NC(=O)Nc3ccc(C(F)(F)F)cc3)cc2C(=O)N([C@H](C)CO)C[C@H]1C,17% (inactive)
3,N#C[C@H]1[C@@H](c2ccc(C#CC3CCCCC3)cc2)[C@@H](CO)N1C(=O)Nc1ccc(F)cc1,10.8% (inactive)
4,CCCNC(=O)N1[C@H](CO)[C@H](c2ccc(-c3cccc(OC)c3)cc2)[C@@H]1C#N,18% (inactive)
5,COc1ccc(NC(=O)O/N=C/c2c(C)nn(C(C)(C)C)c2C)cc1,39.8% (inactive)
6,C[C@H](CO)N1C[C@H](C)[C@H](CN(C)CC2CCCCC2)Oc2ccc(NC(=O)Nc3ccc(C(F)(F)F)cc3)cc2C1=O,8.34% (inactive)
7,COc1ccc2c(c1)c1ncn(Cc3ccccn3)c(=O)c1n2C,-8.21% (inactive)
8,CCCCC1C(=O)NC(=S)N(C)C1=O (stereo not drawn),-7.17% (inactive)
9,O=C(NCc1ccccn1)C1CCCN(S(=O)(=O)c2ccccc2)C1 (stereo not drawn),18.3% (inactive)
10,CC(C)(C)n1cc(C(=O)c2ccc3ccccc3c2O)cn1,-24.4% (inactive)
11,O=C1C(Br)=C(c2ccccc2)C(c2ccccc2)=C1c1ccccc1,-5.75% (inactive)
12,CC1=CC(=O)c2ccccc2C1=O,21.6% (inactive)
13,C[C@@H]1CCCCO[C@@H](CN(C)S(=O)(=O)c2ccc(Cl)cc2)[C@H](C)CN([C@H](C)CO)C(=O)c2cc(NC(=O)Nc3ccc(C(F)(F)F)cc3)ccc2O1,17% (inactive)
14,COc1ccccc1C(=O)Nc1ccc2c(c1)C(=O)N(C)[C@H]1CC[C@H](CC(=O)Nc3cccc(C(C)C)c3)O[C@@H]1CO2,37.4% (inactive)

# Same assay, conditions: B cell line, TNFa signaling counterscreen reporter; at 1.2 µM; stronger effect = lower value
row,SMILES,max activity
1,N#C[C@@H]1[C@@H](c2ccccc2-c2ccc(F)cc2)[C@H](CO)N1C(=O)NC1CCCCC1,18.3% (inactive)

# Same assay, conditions: B cell line, TNFa signaling counterscreen reporter; at 3 µM; stronger effect = lower value
row,SMILES,max activity
1,C[C@H]1CN([C@@H](C)CO)C(=O)c2c(c3ccccc3n2C)-c2ccccc2CO[C@@H]1CN(C)S(=O)(=O)c1ccc([N+](=O)[O-])cc1,-14.8% (inactive)

# Same assay, conditions: B cell line, TNFa signaling counterscreen reporter; at 3.5 µM; stronger effect = lower value
row,SMILES,max activity
1,Cc1ccc(S(=O)(=O)N2CCCC2CNC(=O)c2ccc3c(c2)OCO3)cc1 (stereo not drawn),-23.3% (inactive)
2,N#Cc1ccc(-c2ccc3c(c2)[C@H]2[C@H](CCN2C(=O)C2CC2)[C@@H](CO)N3)cc1,-16.6% (inactive)
3,N#C[C@H]1[C@H](c2ccc(C#Cc3ccccc3F)cc2)[C@@H](CO)N1C(=O)C1CC1,-17.4% (inactive)
4,O=C(CNCCO)N1N=C(c2cccs2)CC1c1cccs1 (stereo not drawn),-16% (inactive)
5,O=C(C1CCC1)N1CCc2cc(S(=O)(=O)N3CCCCC3)ccc21,-31.7% (inactive)
6,O=C(C[C@@H]1CC[C@H]2[C@@H](COC[C@@H](O)CN2Cc2cc(F)ccc2F)O1)NCc1ccc(Oc2ccccc2)cc1,-19.8% (inactive)
7,CC(C)OC(=O)CC1C(=O)NCCN1C(=S)NC(=O)c1cccs1 (stereo not drawn),7.79% (inactive)
8,N#C[C@@H]1[C@H](c2ccc(C#CC3CCCC3)cc2)[C@H](CO)N1C(=O)Cc1ccccn1,-8.57% (inactive)
9,CCSc1ccc(-c2cc(NC=O)c3ncc(-c4cccc(C(=O)N(C)C)c4)n3c2)cc1,45.8% (inactive)
10,Cc1ccc(-c2cc(C(=O)N3CCCC(C(F)(F)F)C3)c3ccccc3n2)o1 (stereo not drawn),21.4% (inactive)
11,CC12CC[C@H]3[C@@H](CCC4(O)C[C@H](O)CCC34/C=N/NC(=O)Cc3ccccc3)C1(O)CCC2C1=CC(=O)OC1 (stereo partly drawn),5.28% (inactive)
12,Cc1ccc(-c2ccccc2[C@H]2[C@@H](C#N)N(c3ncc(-c4ccccc4)s3)[C@@H]2CO)cc1,7.84% (inactive)
13,COc1ccc(S(=O)(=O)Nc2ccc3c(c2)C(=O)N([C@@H](C)CO)C[C@@H](C)[C@@H](CN(C)Cc2ccc(C(F)(F)F)cc2)OCCCC[C@H](C)O3)cc1,-16.5% (inactive)

# Same assay, conditions: B cell line, TNFa signaling counterscreen reporter; at 10 µM; stronger effect = lower value
row,SMILES,max activity
1,CCCNC(=O)N1[C@H](C#N)[C@@H](c2ccc(-c3cccc(OC)c3)cc2)[C@H]1CO,11.7% (inactive)
2,N#C[C@@H]1[C@@H](c2ccccc2)[C@H](CO)N1C(=O)CN1CCOCC1,46.9% (inactive)
3,C[C@@H]1CN([C@H](C)CO)C(=O)c2c(c3ccccc3n2C)-c2ccccc2CO[C@H]1CN(C)C(=O)Nc1ccccc1C(F)(F)F,-6.36% (inactive)
4,CCc1cnc(N2[C@H](C#N)[C@@H](c3ccc(C#CC(C)C)cc3)[C@H]2CO)s1,16.5% (inactive)
5,C=C1C(=O)OC2C=C(CO)CCC=C(CO)CC(OC(=O)C(C)C)C12 (stereo not drawn),28.9% (inactive)
6,CC(=NNC(=S)N1CC2CCC(CC2)C1)c1nccs1,43.9% (inactive)
7,OC(CCN1CCCCC1)c1ccc(-c2ccccc2)cc1 (stereo not drawn),32.8% (inactive)
8,CCc1cnc(N2[C@H](C#N)[C@H](c3ccc(C#CCC4CCCC4)cc3)[C@@H]2CO)s1,32.9% (inactive)
9,CCc1cnc(N2[C@H](C#N)[C@@H](c3ccccc3C3=CCCC3)[C@@H]2CO)s1,9.74% (inactive)
10,O=C(NCCC(c1ccccc1)c1ccco1)c1cccs1 (stereo not drawn),46.8% (inactive)
11,CCc1cc2c(=O)c(-c3ccc4c(c3)OCCO4)coc2c(CN2CCCCC2C)c1O (stereo not drawn),26.6% (inactive)
12,c1cncc(C2=NCCC2)c1,38% (inactive)
13,CN1C(=O)c2cc(NC(=O)c3cccc(Cl)c3)ccc2OC[C@@H]2O[C@@H](CC(=O)NC3CCCCC3)CC[C@H]21,-5.27% (inactive)

# From PubChem BioAssay AID1259334 (Broad Institute, 2017)
